The record followed here is PubChem BioAssay AID330 (DTP/NCI, 2004).

“And” between values parts separate entries of the source, which are not always exact repeats. Identical values can stand only once. Inconclusive results and toxic doses are left out.

This experiment deals with P388 leukemia ip, CD2F1 mice, survival T/C. The experiment is described as follows: NCI In Vivo Anticancer Drug Screen. Data for tumor model P388 Leukemia (intraperitoneal) in CD2F1 (CDF1) mice. The settings on record: endpoint: median survival time, higher = longer survival. In a few lines:
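Mice carrying the transplanted tumor received test compound or vehicle. Survival was recorded in each group, and the value is the treated-group measurement divided by that of the vehicle-treated control group.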

The mark [1] stands for this setting: dose: 100.0 mg/kg/injection, schedule: Q01DX009 (ip), vehicle: saline with Tween-80.
Where [2] appears, read: dose: 200.0 mg/kg/injection, schedule: Q01DX009 (ip), vehicle: saline with Tween-80.
Where [3] appears, read: dose: 100.0 mg/kg/injection, schedule: Q04DX003 (ip), vehicle: Klucel (hydroxypropylcellulose) (HPC).
[4] abbreviates: dose: 200.0 mg/kg/injection, schedule: Q04DX003 (ip), vehicle: Klucel (hydroxypropylcellulose) (HPC).
Where [5] appears, read: dose: 400.0 mg/kg/injection, schedule: Q04DX003 (ip), vehicle: Klucel (hydroxypropylcellulose) (HPC).
Where [6] appears, read: dose: 60.0 mg/kg/injection, schedule: Q01DX005 (ip), vehicle: saline with Tween-80.
The mark [7] stands for this setting: dose: 120.0 mg/kg/injection, schedule: Q01DX005 (ip), vehicle: saline with Tween-80.
Setting [8] is: dose: 240.0 mg/kg/injection, schedule: Q01DX005 (ip), vehicle: saline with Tween-80.
The mark [9] stands for this setting: dose: 100.0 mg/kg/injection, schedule: Q01DX009 (ip), vehicle: Klucel (hydroxypropylcellulose) (HPC).
The mark [10] stands for this setting: dose: 25.0 mg/kg/injection, schedule: Q01DX005 (ip), vehicle: Klucel (hydroxypropylcellulose) (HPC).
[11] abbreviates: dose: 50.0 mg/kg/injection, schedule: Q01DX005 (ip), vehicle: Klucel (hydroxypropylcellulose) (HPC).
Where [12] appears, read: dose: 100.0 mg/kg/injection, schedule: Q01DX005 (ip), vehicle: Klucel (hydroxypropylcellulose) (HPC).
[13] abbreviates: dose: 200.0 mg/kg/injection, schedule: Q01DX005 (ip), vehicle: Klucel (hydroxypropylcellulose) (HPC).

With `Nc1nc(N)c2cc(CNc3ccc(C(=O)NC(CC(=O)O)CC(=O)O)cc3)ccc2n1`, the T/C was 203 % of control (dose: 12.5 mg/kg/injection, schedule: Q01DX009 (ip), vehicle: saline with Tween-80); 226 % of control (dose: 25.0 mg/kg/injection, schedule: Q01DX009 (ip), vehicle: saline with Tween-80); 168 % of control (dose: 100.0 mg/kg/injection, schedule: Q01DX009 (ip), vehicle: saline sonified); 99 % of control under setting [1]; 181 % of control (dose: 100.0 mg/kg/injection, schedule: Q04DX003 (ip), vehicle: saline sonified); 204 % of control (dose: 200.0 mg/kg/injection, schedule: Q01DX009 (ip), vehicle: saline sonified). The T/C is 87 % of control under setting [2]; 150 % of control (dose: 200.0 mg/kg/injection, schedule: Q04DX003 (ip), vehicle: saline sonified); 159 % of control (dose: 400.0 mg/kg/injection, schedule: Q01DX009 (ip), vehicle: saline sonified); 113 % of control (dose: 400.0 mg/kg/injection, schedule: Q04DX003 (ip), vehicle: saline sonified).
Regarding `CCCC1(c2ccccc2)CCCC(C#N)C1=N` (centres undefined), the T/C reads like this: under setting [3], 97 % of control; under setting [4], 98 % of control; under setting [5], 92 % of control.
Regarding `CCN(CC)c1cccc(OC(=O)Nc2cccc(Cl)c2Cl)c1`, the T/C reads like this: under setting [6], 100 % of control; under setting [7], 100 % of control; under setting [8], 92 % of control.
As for `COc1ccc(C(=S)SCCCC(=O)O)cc1`, the T/C was 102 % of control (dose: 50.0 mg/kg/injection, schedule: Q01DX009 (ip), vehicle: Klucel (hydroxypropylcellulose) (HPC)); 98 % of control under setting [9]; 92 % of control (dose: 200.0 mg/kg/injection, schedule: Q01DX009 (ip), vehicle: Klucel (hydroxypropylcellulose) (HPC)).
On to `COc1ccc2nccc(NCCCN3CCN(CCCNc4ccnc5ccc(OC)cc45)CC3)c2c1`, for which the T/C by setting is: (dose: 3.75 mg/kg/injection, schedule: Q01DX005 (ip), vehicle: water) 104 % of control; (dose: 7.5 mg/kg/injection, schedule: Q01DX005 (ip), vehicle: water) 107 % of control; (dose: 15.0 mg/kg/injection, schedule: Q01DX005 (ip), vehicle: water) 99 % of control.
In the case of `CCc1cccc(CC)c1N1C(=O)CSCC1=O`, the T/C (dose: 50.0 mg/kg/injection, schedule: Q01DX009 (ip), vehicle: saline) is 99 % of control; the T/C (dose: 100.0 mg/kg/injection, schedule: Q01DX009 (ip), vehicle: saline) is 93 % of control; the T/C (dose: 200.0 mg/kg/injection, schedule: Q01DX009 (ip), vehicle: saline) is 100 % of control.
Regarding `C[n+]1cccc(Oc2ccc[n+](C)c2)c1`, the T/C is, setting by setting: under setting [6], 100 % of control; under setting [7], 99 % of control; under setting [8], 109 % of control.
On the same counts, the results for `COc1ccc(C(=O)CCc2cccc(NC(=O)CCl)c2)cc1` are 91 % of control, 100 % of control and 102 % of control.
For the compound `CC1CC(c2ccc(Cl)cc2)C(c2ccc(Cl)cc2)C(=O)O1` (centres undefined), the T/C under setting [9] is 90 % of control.
Take `O=C(OC(c1ccccc1)(C(F)(F)F)C(F)(F)F)c1ccccc1Sc1ccccc1`: the T/C reads like this: under setting [1], 95 % of control; under setting [2], 90 % of control; (dose: 400.0 mg/kg/injection, schedule: Q01DX009 (ip), vehicle: saline with Tween-80) 95 % of control.
For the compound `CCCCCCCCOc1ccc(/C=C/C(C)=N/NC(N)=NC)cc1OC`, the T/C runs as follows: (dose: 7.5 mg/kg/injection, schedule: Q01DX005 (ip), vehicle: saline with Tween-80) 111 % of control; (dose: 15.0 mg/kg/injection, schedule: Q01DX005 (ip), vehicle: saline with Tween-80) 95 % of control; (dose: 30.0 mg/kg/injection, schedule: Q01DX005 (ip), vehicle: saline with Tween-80) 102 % of control.
With `COC1CC(NC(C)=O)C(OC(=O)c2ccccc2)C(CBr)O1` (centres undefined), the T/C reads like this: (dose: 1.56 mg/kg/injection, schedule: Q01DX009 (ip), vehicle: other) 94 % of control; (dose: 3.13 mg/kg/injection, schedule: Q01DX009 (ip), vehicle: other) 94 % of control; (dose: 6.25 mg/kg/injection, schedule: Q01DX009 (ip), vehicle: other) 106 % of control; (dose: 12.5 mg/kg/injection, schedule: Q01DX009 (ip), vehicle: other) 108 % of control; (dose: 25.0 mg/kg/injection, schedule: Q01DX009 (ip), vehicle: other) 100 % of control and 106 % of control; (dose: 50.0 mg/kg/injection, schedule: Q01DX009 (ip), vehicle: other) 101 % of control. Also, the T/C was 104 % of control (dose: 100.0 mg/kg/injection, schedule: Q01DX009 (ip), vehicle: other); 97 % of control (dose: 200.0 mg/kg/injection, schedule: Q01DX009 (ip), vehicle: other); 92 % of control (dose: 400.0 mg/kg/injection, schedule: Q01DX009 (ip), vehicle: other).
Take `CN(C)c1nc(=O)c2c(o1)CC(C)(C)C2`: the T/C under setting [3] is 110 % of control, the T/C under setting [4] is 109 % of control and the T/C under setting [5] is 90 % of control.
Regarding `CC(=O)OC1CCC2(C)C(=CCC3C2CCC2(C)C3CC3ON=C(C)C32)C1` (centres undefined), the T/C (dose: 12.5 mg/kg/injection, schedule: Q01DX005 (ip), vehicle: Klucel (hydroxypropylcellulose) (HPC)) was 101 % of control; the T/C under setting [10] is 99 % of control; the T/C under setting [11] is 98 % of control; the T/C under setting [12] was 86 % of control; the T/C under setting [13] was 86 % of control.
For `O=C1N=C2SCCN2C1(c1ccccc1)c1ccccc1`, the T/C is, setting by setting: (dose: 25.0 mg/kg/injection, schedule: Q04DX003 (ip), vehicle: Klucel (hydroxypropylcellulose) (HPC)) 100 % of control; (dose: 50.0 mg/kg/injection, schedule: Q04DX003 (ip), vehicle: Klucel (hydroxypropylcellulose) (HPC)) 100 % of control; under setting [3], 92 % of control; under setting [4], 109 % of control; under setting [5], 103 % of control.
Consider `Cc1cc(Br)c(O)c(C(=NCC(C)N=C(c2ccccc2)c2cc(C)cc(Br)c2O)c2ccccc2)c1` (centres undefined), for which the T/C was 100 % of control under setting [10], 96 % of control under setting [11], 100 % of control under setting [12] and 96 % of control under setting [13].
On to `CC(=O)[O-].CC(=O)[O-].O=C(N/N=C/c1ccccc1[OH2+])c1ccncc1.[Zn+2]`, for which the T/C by setting is: (dose: 60.0 mg/kg/injection, schedule: Q01DX005 (ip), vehicle: Klucel (hydroxypropylcellulose) (HPC)) 100 % of control; (dose: 120.0 mg/kg/injection, schedule: Q01DX005 (ip), vehicle: Klucel (hydroxypropylcellulose) (HPC)) 100 % of control; (dose: 240.0 mg/kg/injection, schedule: Q01DX005 (ip), vehicle: Klucel (hydroxypropylcellulose) (HPC)) 99 % of control.
Consider `CNC(=S)SSC(=S)NCCNC(=S)SSC(=S)NC`, for which the T/C is, setting by setting: (dose: 50.0 mg/kg/injection, schedule: Q01DX005 (ip), vehicle: saline with Tween-80) 99 % of control; (dose: 100.0 mg/kg/injection, schedule: Q01DX005 (ip), vehicle: saline with Tween-80) 106 % of control; (dose: 200.0 mg/kg/injection, schedule: Q01DX005 (ip), vehicle: saline with Tween-80) 101 % of control.
With `O=C(O)c1cc2cccc(OCc3ccc(Cl)cc3Cl)c2cc1O`, the T/C (dose: 100.0 mg/kg/injection, schedule: Q04DX002 (ip), vehicle: Klucel (hydroxypropylcellulose) (HPC)) is 115 % of control; the T/C (dose: 200.0 mg/kg/injection, schedule: Q04DX002 (ip), vehicle: Klucel (hydroxypropylcellulose) (HPC)) is 106 % of control; the T/C (dose: 400.0 mg/kg/injection, schedule: Q04DX002 (ip), vehicle: Klucel (hydroxypropylcellulose) (HPC)) was 103 % of control.
Take `O=C1Nc2ccccc2C1=O`: the T/C was 100 % of control (dose: 50.0 mg/kg/injection, schedule: Q01DX009 (ip), vehicle: saline with Tween-80); 101 % of control under setting [1]; 105 % of control under setting [2].
For the compound `CC(C)C1(c2ccccc2)C(=O)c2ccccc2C1=O`, the T/C was 102 % of control (dose: 100.0 mg/kg/injection, schedule: Q04DX003 (ip), vehicle: saline); 103 % of control (dose: 200.0 mg/kg/injection, schedule: Q04DX003 (ip), vehicle: saline); 105 % of control (dose: 400.0 mg/kg/injection, schedule: Q04DX003 (ip), vehicle: saline).
